Measured values reported in the NIST ThermoML archive (doi:10.1016/j.fluid.2017.09.019).
Numbers after ± are expanded uncertainties.

Key:
[1] = Liquid; for viscosity / mass density: 101 kPa; for viscosity: Concentric cylinders viscometry; for mass density: Vibrating tube method; for vapor or sublimation pressure: Closed cell (Static) method
[2] = wn = mass fraction of the nth substance listed; conditions: 101 kPa, Liquid; for viscosity: Concentric cylinders viscometry; for mass density: Vibrating tube method

In the case of `CC(O)CN(C)C` (stereo not drawn) [1-(dimethylamino)-2-propanol], the viscosity ([1]; 298.15 K) is reported as 1.332 ± 0.1 mPa·s, the mass density ([1]; 298.15 K) is reported as 845.4 ± 2.4 kg/m3 and the “vapor or sublimation pressure” value ([1]; 298.49 K) is reported as 4.13 ± 2 kPa. For the same molecule, the viscosity ([1]; 303.15 K) was 1.183 ± 0.1 mPa·s, the mass density ([1]; 303.15 K) was 840.3 ± 2.4 kg/m3 and the “vapor or sublimation pressure” value ([1]; 303.88 K) was 6.59 ± 2 kPa. The viscosity ([1]; 308.15 K) was 1.059 ± 0.1 mPa·s, the mass density ([1]; 308.15 K) was 835.5 ± 2.4 kg/m3 and the “vapor or sublimation pressure” value ([1]; 308.43 K) was 8.03 ± 2 kPa. The viscosity ([1]; 313.15 K) was 0.955 ± 0.1 mPa·s, the mass density ([1]; 313.15 K) was 830.7 ± 2.4 kg/m3 and the “vapor or sublimation pressure” value ([1]; 313.34 K) was 10.34 ± 2 kPa. The viscosity ([1]; 318.15 K) was 0.866 ± 0.1 mPa·s, the mass density ([1]; 318.15 K) was 825.8 ± 2.4 kg/m3 and the “vapor or sublimation pressure” value ([1]; 318.26 K) was 12.51 ± 2 kPa. For the same molecule, the viscosity ([1]; 323.15 K) was 0.788 ± 0.1 mPa·s, the mass density ([1]; 323.15 K) was 820.9 ± 2.4 kg/m3 and the “vapor or sublimation pressure” value ([1]; 323.6 K) was 15.84 ± 2 kPa. The viscosity ([1]; 328.15 K) was 0.72 ± 0.1 mPa·s, the mass density ([1]; 328.15 K) was 816 ± 2.4 kg/m3 and the “vapor or sublimation pressure” value ([1]; 328.26 K) was 18.73 ± 2 kPa. For the same molecule, the “vapor or sublimation pressure” value ([1]; 333.04 K) was 23.06 ± 2 kPa, the viscosity ([1]; 333.15 K) was 0.662 ± 0.1 mPa·s and the mass density ([1]; 333.15 K) was 811.1 ± 2.4 kg/m3.
`CN(CCO)CCO` [N-methyldiethanolamine] gave a viscosity ([1]; 298.15 K) of 77.29 ± 0.88 mPa·s, a mass density ([1]; 298.15 K) of 1036.9 ± 2.4 kg/m3 and a viscosity ([1]; 308.15 K) of 44.99 ± 0.51 mPa·s. It also gave a mass density ([1]; 308.15 K) of 1029.8 ± 2.4 kg/m3, a viscosity ([1]; 323.15 K) of 22.6 ± 0.34 mPa·s and a mass density ([1]; 323.15 K) of 1018.3 ± 2.4 kg/m3.
Molecule `CN(CCO)CCO` [N-methyldiethanolamine] + O has a viscosity ([2]; 298.15 K, w1 = 0.2) of 1.932 ± 0.1 mPa·s, a viscosity ([2]; 298.15 K, w1 = 0.3) of 3.081 ± 0.1 mPa·s and a viscosity ([2]; 298.15 K, w1 = 1) of 77.29 ± 0.88 mPa·s. It also gave a mass density ([2]; 298.15 K, w1 = 0.2) of 1014.8 ± 2.4 kg/m3, a mass density ([2]; 298.15 K, w1 = 0.3) of 1025.2 ± 2.4 kg/m3 and a mass density ([2]; 298.15 K, w1 = 1) of 1036.9 ± 2.4 kg/m3. For the same molecule, the viscosity ([2]; 308.15 K, w1 = 0.2) was 1.51 ± 0.1 mPa·s, the viscosity ([2]; 308.15 K, w1 = 0.3) was 2.263 ± 0.1 mPa·s and the viscosity ([2]; 308.15 K, w1 = 1) was 44.99 ± 0.51 mPa·s. The mass density ([2]; 308.15 K, w1 = 0.2) was 1010.6 ± 2.4 kg/m3, the mass density ([2]; 308.15 K, w1 = 0.3) was 1021.1 ± 2.4 kg/m3 and the mass density ([2]; 308.15 K, w1 = 1) was 1029.8 ± 2.4 kg/m3. The viscosity ([2]; 323.15 K, w1 = 0.2) was 1.061 ± 0.1 mPa·s, the viscosity ([2]; 323.15 K, w1 = 0.3) was 1.521 ± 0.1 mPa·s and the viscosity ([2]; 323.15 K, w1 = 1) was 22.6 ± 0.34 mPa·s. It also gave a mass density ([2]; 323.15 K, w1 = 0.2) of 1002.9 ± 2.4 kg/m3, a mass density ([2]; 323.15 K, w1 = 0.3) of 1013.2 ± 2.4 kg/m3 and a mass density ([2]; 323.15 K, w1 = 1) of 1018.3 ± 2.4 kg/m3.
